Experimental data taken from ChEMBL document CHEMBL1240370, “Effects of immunomodulatory and organism-associated molecules on the permeability of an in vitro blood-brain barrier model to amphotericin B and fluconazole” (Antimicrob Agents Chemother, 2010).

Experiments:
Type in all cases: ADME, cell-based, Bos taurus
Conditions in all cases: cattle, c6, 24 h
[1] = Permeability across BBMEC cocultured with rat C6 cell BBB model after 24 hrs in presence of 0.1 ug/ml TNF
[2] = Permeability across BBMEC co-cultured with rat C6 cell BBB model after 24 hrs in presence of 0.01 ug/ml interleukin-1
[3] = Permeability across BBMEC cocultured with rat C6 cell BBB model after 24 hrs in presence of 0.1 ug/ml interleukin-2
[4] = Permeability across BBMEC cocultured with rat C6 cell BBB model after 24 hrs in presence of 1 ug/ml lipopolysaccharide
[5] = Permeability across BBMEC cocultured with rat C6 cell BBB model after 24 hrs in presence of 0.1 ug/ml lipopolysaccharide
[6] = Permeability across BBMEC cocultured with rat C6 cell BBB model after 24 hrs in presence of 0.1 ug/ml lipoteichoic acid
[7] = Permeability across BBMEC cocultured with rat C6 cell BBB model after 24 hrs in presence of 1 ug/ml Dexamethasone
[8] = Permeability across BBMEC cocultured with rat C6 cell BBB model after 24 hrs in presence of 0.1 ug/ml Dexamethasone
[9] = Permeability across BBMEC cocultured with rat C6 cell BBB model after 24 hrs in presence of 0.01 ug/ml tacrolimus-506
[10] = Permeability across BBMEC cocultured with rat C6 cell BBB model after 24 hrs in presence of 0.1 ug/ml tacrolimus-506
[11] = Permeability across BBMEC cocultured with rat C6 cell BBB model after 24 hrs in presence of 0.01 ug/ml TNF

Measured: permeability

OC(Cn1cncn1)(Cn1cncn1)c1ccc(F)cc1F [FLUCONAZOLE]
permeable: [1] | [2] | [3] | [4] | [5] | [6] | [7] | [8] | [9] | [10] | [11]
